Assay results from patent US11279691B2, “Substituted pyridine and pyrazine compounds as PDE4 inhibitors” (Dart Neuroscience LLC, priority 2013, dated 2022).

Target: T1, PDE4D3 (Homo sapiens, UniProt Q08499)
T1 construct: GST
Type: biochemical
Settings: GST-tagged PDE4D3, 200 nM FAM-cAMP, 11-point dose-response; read-out: PD4d3 pEC50 (converted)

T1 sequence (Q08499 1-673 isoform Q08499-2): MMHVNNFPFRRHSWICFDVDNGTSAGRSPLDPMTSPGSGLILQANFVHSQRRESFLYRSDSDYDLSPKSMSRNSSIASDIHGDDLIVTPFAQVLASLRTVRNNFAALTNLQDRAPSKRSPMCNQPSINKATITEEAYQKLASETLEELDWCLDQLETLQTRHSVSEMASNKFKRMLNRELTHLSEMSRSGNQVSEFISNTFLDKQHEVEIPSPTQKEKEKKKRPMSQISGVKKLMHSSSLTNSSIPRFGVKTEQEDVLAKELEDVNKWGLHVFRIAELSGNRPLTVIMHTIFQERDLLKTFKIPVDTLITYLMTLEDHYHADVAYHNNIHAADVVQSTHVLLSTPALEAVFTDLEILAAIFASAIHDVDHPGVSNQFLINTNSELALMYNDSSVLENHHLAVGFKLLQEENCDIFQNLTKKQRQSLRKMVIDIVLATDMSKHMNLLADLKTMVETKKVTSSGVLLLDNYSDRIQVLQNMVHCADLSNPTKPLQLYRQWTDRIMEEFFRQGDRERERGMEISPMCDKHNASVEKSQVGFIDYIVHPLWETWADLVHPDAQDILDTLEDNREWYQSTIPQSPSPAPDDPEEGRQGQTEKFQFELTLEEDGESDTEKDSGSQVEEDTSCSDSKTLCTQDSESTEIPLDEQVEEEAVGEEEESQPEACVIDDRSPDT

First: CCOc1cccc(-c2cc(Cn3nnnc3C)cnc2OCC)c1 [Example 401, 2-Ethoxy-3-(3-ethoxyphenyl)-5-[(5-methyl-1H-1,2,3,4-tetrazol-1-yl)methyl]pyridine]
Second: CCOc1ncc(Cn2nnnc2C)cc1-c1ccnc(OC(F)F)c1 [Example 396, 3-[2-(Difluoromethoxy)pyridin-4-yl]-2-ethoxy-5-[(5-methyl-1H-1,2,3,4-tetrazol-1-yl)methyl]pyridine]
The EC50 of the first is higher: 100 to 1000 nM for the first, under 100 nM for the second.

Compared with COc1ncc(Cc2cnc(C(C)(C)C#N)nc2)cc1-c1cccc(Cl)c1 [Example 284, 2-(5-((5-(3-Chlorophenyl)-6-methoxypyridin-3-yl)methyl)pyrimidin-2-yl)-2-methylpropanenitrile], COc1ncc(Cc2cnc(NCCO)nc2)cc1-c1cccc(Cl)c1 [Example 391, 2-[(5-{[5-(3-Chlorophenyl)-6-methoxypyridin-3-yl]methyl}pyrimidin-2-yl)amino]ethan-1-ol] is lower in EC50: 1000 to 10000 nM for the first, under 100 nM for the second.

First: CCOc1ncc(Cn2cnc(C(N)=O)c2)nc1-c1cccc(Cl)c1 [Example 312, 1-{[6-(3-Chlorophenyl)-5-ethoxypyrazin-2-yl]methyl}-1H-imidazole-4-carboxamide]
Second: CCOc1ncc(Cn2nc(C)cc2CO)cc1-c1cccc(Cl)c1 [Example 320, (1-{[5-(3-Chlorophenyl)-6-ethoxypyridin-3-yl]methyl}-3-methyl-1H-pyrazol-5-yl)methanol]
The EC50 of the first is lower: under 100 nM for the first, over 10000 nM for the second.

Molecule CCOc1ncc(Cc2cnc(CO)c(F)c2)cc1-c1ccnc(OC(F)F)c1 [Example 405, [5-({5-[2-(Difluoromethoxy)pyridin-4-yl]-6-ethoxypyridin-3-yl}methyl)-3-fluoropyridin-2-yl]methanol] has an EC50 of under 100 nM.
